Like-named read-outs stand apart in the source and are kept apart here.

The source of these data is patent publication US10059733B2 (NUCORION PHARMACEUTICALS, INC., priority 2014, dated 2018).

A short description of data set [1]: Tolerability of single oral dosage in HCV-infected chimpanzees. The data set is classed as in vivo, chimpanzee. The note with it: single oral dosage 200 mg. On the procedure:
Via oral gavage, two HCV-infected chimpanzees I (male, 56.49 kg and 11 years old; genotype 1b HCV) and II (male, 61.91 kg and 34 years old; genotype 1a HCV) each received a single dosage of 200 mg of Compound 1 in Formulation I while the HCV-infected chimpanzee III (male, 56.19 kg and 18 years old; genotype 1a HCV) was administered a single dosage of 260 mg of the non-phosphorylated analog of Compound 1 (Table 1) in Formulation I. After 12 hours, the HCV viral titer decreased from 24,100 to 10,200 IU/ml (or 58% drop) in Chimpanzee I, from 38,500 to 27,000 IU/ml (or 30% drop) in Chimpanzee II, and from 154,000 to 142,000 IU/ml (or 8% drop) in Chimpanzee III. […] All animals were fasted overnight prior to dosing and a minimum of 2 hours prior to scheduled blood sample collections. Viral load determinations were performed on plasma samples using the HCV TaqMan assay (COBAS® AmpliPrep/COBAS® TaqMan® HCV Test, Version 2, Test Code 1220) for quantitative analysis. […] There were no adverse effects, illness, nor distress seen with the three chimpanzees during the study requiring veterinarian intervention.

The test system of a further data set is HEPG2. Nature of the data set: TC50 assay with human cancer cell lines, 96 h: HEPG2. To be noted: HepG2, 96 h, read-out: TC50 HEPG2 (μM). The data set is classed as cell-based.
Data set [2] is described as follows: TC50 assay in Huh7 cells, 48 h (CellTiter 96). To be noted: human. On the procedure:
(§1) Huh7 cells were maintained at 37° C. in a humidified atmosphere at 5% CO2 in DMEM containing 10% FBS. […] The cells were then treated with each compound at concentrations ranging from 500 μM to 0 μM in triplicate in DMEM media containing 2% FBS and 0.5% DMSO and without phenol red. After 48 h of treatment at 37° C., the relative number of living cells in each well was determined by using the CellTiter 96 system (Promega) according to the manufacturer's instructions. The 3-(4,5-dimethylthiazol-2-yl)-5-(3-carboxymethoxyphenyl)-2-(4-sulfophenyl)-2H-tetrazolium (MTS) and phenazine methosulfate (PMS) reagents were added to each well of the 96-well plate and the plate was incubated at 37° C. for approximately 2 h. The absorbance at 490 nm and 650 nm in each well was then determined by using a Flexstation 3 microplate reader ([…]). The absorbance determined at 650 nm was then subtracted from the absorbance determined at 490 nm to correct for light scattering. The corrected absorbance values representing the relative number of live cells in each condition were then plotted as a function of compound concentration, and the data were then fit to the following sigmoidal Emax equation by using Kaleidagraph: y=(Emax*x^Slope)/(TC50^Slope+x^Slope) where y is the relative corrected absorbance value, Emax is the maximum relative inhibition, x is the compound concentration, TC50 is the concentration of the compound at which the total cell population is reduced by 50%, and Slope is the slope of the curve.
The data in Table 1 were determined for cells exposed to drug for 48 h. The IC50 is the concentration of each compound necessary to inhibit the replication of the HCV luciferase replicon to 50%. “TC50,” refers to toxic concentration necessary to reduce the cell population by 50%. All compounds were purified by HPLC.

The subject of another data set is Huh7 cells. As to the kind of experiment: Cell transport: cytotoxicity in Huh7 cells with or without ENT1 inhibitor NBTI. The note with it: for CC50: Homo sapiens, Huh-7, 48 h. On the procedure:
as §1
To this end, Huh7 cells or PK9 cells were seeded in 96-well plates at a density of 5,000 cells/well or 2,500 cells/well, respectively, and the plates were incubated at 37° C. for 24 h to allow for cell attachment. The media was then removed from the plates and replaced with media containing 2% FBS, 0.5% DMSO and 10 μM NBTI. […] Subsequently, the cells were treated with each compound at final concentrations ranging from 500 μM to 0 μM in triplicate in media containing 2% FBS, 0.5% DMSO and 10 μM NBTI. […] The TC50 values of each compound in the presence or absence of the ENT1 inhibitor were then compared.

The nature of data set [3]: In vivo toxicology assessment in mice. To be noted: oral gavage 20 mg/kg in Formulation I. Also on record: species or system CD-1 ICR mice. On the procedure:
All in vivo toxicology assays were performed with CD-1 ICR mice (female, 4-6 week old; 20-30 gram body weight). Compound 1 (Table 1) was first dissolved in Formulation I containing 5% dimethyl sulfoxide (DMSO), 20% solutol, 20% PEG 400, and 55% sodium phosphate (50 mM, pH 6.0). Five mice were administered with Compound 1 in Formulation I via oral gavage at a dosage of 20 mg/kg while two other mice were orally treated with Formulation I alone (no inhibitor).

The next data set deals with Huh7. As to the kind of experiment: TC50 assay with human cancer cell lines, 96 h: Huh7. The data set is classed as cell-based. The note with it: Huh-7, 96 h, read-out: TC50 Huh7 (μM).
In a further data set the test system is PK9 cells. As to the kind of experiment: TC50 assay in PK9 cells, 48 h. To be noted: Homo sapiens, PK9, 48 h, read-out: TC50 (μM) in PK9 cells at 48 hr. On the procedure:
as §1
PK9 and RPK9 cells were maintained at 37° C. in a humidified atmosphere at 5% CO2 in Roswell Park Memorial Institute (RPMI) media containing 10% FBS. […] The cells were then treated with each compound at concentrations ranging from […] to 0 μM in triplicate in RPMI media containing 2% FBS and 0.5% DMSO and without phenol red. […] The RPK9 cells were derived from the parental PK9 cell line, and are deficient for dCK activity due to the partial deletion of the dCK gene.

Protocol for HEPG2: Huh7 cells were maintained at 37° C. in a humidified atmosphere at 5% CO2 in DMEM containing 10% FBS. […] The cells were then treated with each compound at concentrations ranging from 500 μM to 0 μM in triplicate in DMEM media containing 2% FBS and 0.5% DMSO and without phenol red. After 48 h of treatment at 37° C., the relative number of living cells in each well was determined by using the CellTiter 96 system (Promega) according to the manufacturer's instructions. The 3-(4,5-dimethylthiazol-2-yl)-5-(3-carboxymethoxyphenyl)-2-(4-sulfophenyl)-2H-tetrazolium (MTS) and phenazine methosulfate (PMS) reagents were added to each well of the 96-well plate and the plate was incubated at 37° C. for approximately 2 h. The absorbance at 490 nm and 650 nm in each well was then determined by using a Flexstation 3 microplate reader (Molecular Dynamics). The absorbance determined at 650 nm was then subtracted from the absorbance determined at 490 nm to correct for light scattering. The corrected absorbance values representing the relative number of live cells in each condition were then plotted as a function of compound concentration, and the data were then fit to the following sigmoidal Emax equation by using Kaleidagraph: y=(Emax*x^Slope)/(TC50^Slope+x^Slope) where y is the relative corrected absorbance value, Emax is the maximum relative inhibition, x is the compound concentration, TC50 is the concentration of the compound at which the total cell population is reduced by 50%, and Slope is the slope of the curve.
Huh7, HEPG2, HEK293, MCF-7 and BxPC3 cell lines were maintained at 37° C. in a humidified atmosphere at 5% CO2 in DMEM containing 10% FBS. […] The cells were then treated with each compound at concentrations ranging from 500 μM to 0 μM in triplicate in DMEM media containing 2% FBS and 0.5% DMSO and without phenol red.

On to `CCCC(CCC)C(=O)Nc1ccn([C@@H]2O[C@H](CO[P@@](=O)(N[C@@H](C)C(=O)OC(C)C)Oc3ccccc3)[C@@H](O)C2(F)F)c(=O)n1` [Compound 1, (S)-isopropyl 2-(((S)-(((2R,3R,5R)-4,4-difluoro-3-hydroxy-5-(2-oxo-4-(2-propylpentanamido)pyrimidin-1(2H)-yl)tetrahydrofuran-2-yl)methoxy)(phenoxy)phosphoryl)amino)propanoate], for which, in data set [1], the tolerability result is “well tolerated”. The CC50 with HEPG2 stood at 1.31 ± 0.21 µM; in the data set on Huh7 cells (read-out: TC50 (μM) in Huh7 cells at 48 h With NBTI) it was 16.4 µM; in the data set with Huh7 cells (read-out: TC50 (μM) in Huh7 cells at 48 h Without NBTI) it was 17.4 µM; in the data set with Huh7 it was 3.28 ± 0.57 µM; in the data set with PK9 cells, 25.2 ± 13.6 µM. This compound also registered a CC50 at 48 h in data set [2] of 17.4 ± 3.4 µM. The “requirement of the ENT1 transporter for cell entry” value in the data set with Huh7 cells (conclusion from TC50 with/without 10 μM NBTI in Huh7 and PK9 cells) was “do not require the ENT1 transporter for cell entry”. Further, the “internal organs after sacrifice” value in data set [3] (after Day 7) is reported as “healthy with no abnormality”. Moreover, in data set [3] (seven day period of observation), the signs of toxicity result was “no signs of toxicity”.
